Where two headings read alike, the source gives them in different places.
Columns and labels:
Format in all cases: in vivo
Haemonchus contortus = Haemonchus contortus larvacidal (larval development) assay; conditions: 144 h, read-out: Haemonchus contortus LD99
Procedure: a) Haemonchus Contortus Larvacidal Assay:
The effect of compounds on larval development was determined in the assay described by Gill et al. (1995, International Journal of Parasitology 25:463-470). Briefly, in this assay, nematode eggs were applied to the surface of an agar matrix containing the test compound and then allowed to develop through to the L3, infective stage (6 days). The wells for each dilution of every compound (from highest to lowest concentration) were inspected to determine the well number corresponding to the lowest concentration at which development was inhibited in 99% of the nematode larvae present (LD99). Because well numbers correspond to a two-fold serial dilution of each compound, a titre (dilution factor) is generated as 2^n−1, where n is the well number. By dividing the highest concentration tested by the titre an LD99 value can be obtained, representing the concentration required to inhibit development in 99% of the nematode larvae present. The compounds supplied as solid and viscous liquids were dissolved in DMSO. Twelve serial one-half dilutions in DMSO solution were prepared from the stock solution, each of which was then diluted ⅕ with water. Aliquots (10 μl) of each dilution were transferred to the bioassay plates to give a final concentration range of 0.024 to 50 μg/ml.

[1] = tested on: cat flea (Ctenocephalides felis); assay: whole plant or invertebrate; conditions: Ctenocephalides felis
Procedure, shortened: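 Adult C. felis (3-7 days post-emergence; 15 per flask, at least 4 replicates) exposed to a glass flask base dried 24 h after coating with compound in acetone at 1.26 μg/cm^2. Held at 25±1 °C, 75±5% humidity; mortality (immobile or unable to right) scored at 8, 24 and/or 48 h as percentage.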

[2] = tested on: cat flea (Ctenocephalides felis); assay: Ctenocephalides felis adulticide assay: dose response (LC50)
Text: c) Ctenocephalides felis Adulticide Assay: C. felis Dose Response
The purpose of this example was to determine the LC50 when cat fleas were contacted with a glass surface treated with sample compounds or formulations prepared as described above. Mortality of fleas was defined as follows: fleas were considered dead if they didn't move or were on their sides and unable to walk or right themselves. LC50: Lethal Concentration 50—concentration of glass surface treatment at which 50% of the cat fleas were killed. The test species was the cat flea (Ctenocephalides felis). The strain used was obtained from external suppliers as pupae and held in the laboratory under testing conditions until the adults had emerged. Fifteen (15) fleas were used in a minimum of four replicates for each dose level (total of 60 fleas per dose level). The insects were selected to be in the adult life stage, aged between 3 and 7 days post emergence.
The compounds to be tested were dissolved in acetone just prior to testing. Samples of compounds were stored in a refrigerator (5±1° C.) unless otherwise specified. During the mortality testing, the temperature was maintained at 25+1° C. Humidity was maintained at 75±5%. The base (area=159 mm^2) of a 100 mL glass Erlenmeyer (conical) flask provided the treatment surface. Flasks were pretreated with Coatasil™ glass treatment to maximise bio-availability of test compounds by preventing them from binding to the glass surface.
Six dose levels (concentrations) of test sample, in the form of a serial dilution, were derived from a pilot study and covered a range that produced very low to very high mortality. The base of the 100 mL Erlenmeyer flask was treated with 0.5 mL of test sample in acetone and gently swirled. This volume was sufficient to cover the base of the flask. Flasks were left to dry for 24 hours before flea exposure. Adult cat fleas were lightly anaesthetised by cooling and then placed into a sorting chamber, which allowed fleas to revive and jump into the Erlenmeyer flasks. Fifteen (15)adult cat fleas were collected in each flask. The top of the flasks were then covered in Parafilm™ and small holes made to allow gas exchange. A 0.5 mL volume of acetone was applied to the base of an Erlenmeyer flask and the testing proceeded in the same manner described above. Cat fleas in the treatment containers were held under testing conditions for 24 hours. Mortality resulting from the treatments was recorded at 8 and 24 hours.

[3] = 8 h, read-out: C. felis Mortality (%) 8 h, 8 h, Laboratory 1 A data
[4] = 24 h, read-out: C. felis Mortality (%) 24 h, 24 h, Laboratory 1 A data

Row | Structure (SMILES) | IC99 (Haemonchus contortus) [µg/mL] | mortality at 1.26 µg/cm2, 1.26 µg/cm2 [1, 3] [%] | mortality at 1.26 µg/cm2, 1.26 µg/cm2 [1, 4] [%] | C. felis LC50 ([2]; Laboratory 1 C data) [μg/cm^2] | C. felis LC50 ([2]; Laboratory 2 D data) | mortality at 1.26 µg/cm2, 1.26 µg/cm2 ([1]; 8 h, read-out: C. felis Mortality (%) 8 h, 8 h, Laboratory 2 B data) [%] | mortality at 1.26 µg/cm2, 1.26 µg/cm2 ([1]; 24 h, read-out: C. felis Mortality (%) 24 h, 24 h, Laboratory 2 B data) [%]
1 | CC/C(=N\OCc1ccccc1Cl)c1cc(Cl)ccc1NS(=O)(=O)C(F)(F)F [Compound 10] | 2.7 | 56 | 73 | 0.3 |  |  | 
2 | O=S(=O)(Nc1ccc(Cl)cc1/C(=N/OCc1ccc(C(F)(F)F)cc1)c1ccccc1)C(F)(F)F [Compound 24] | 2.5 |  | 43 |  | 0.8^D μg/cm^2 |  | 
3 | CC/C(=N\OCc1cccc(Cl)c1Cl)c1cc(Cl)ccc1NS(=O)(=O)C(F)(F)F [Compound 72] | 0.3 | 13 | 63 | 0.5 |  |  | 
4 | CC/C(=N\OCc1ccc(Cl)cc1Cl)c1cc(Cl)ccc1NS(=O)(=O)C(F)(F)F [Compound 74] | 0.4 | 94 |  | 0.2 |  |  | 
5 | CC/C(=N\OCc1ccc(Cl)c(Cl)c1)c1cc(Cl)ccc1NS(=O)(=O)C(F)(F)F [Compound 79] | 0.6 | 73 | 100 | 0.6 |  |  | 
6 | CCC/C(=N\OCc1ccc(Cl)cc1Cl)c1cc(Cl)ccc1NS(=O)(=O)C(F)(F)F [Compound 100, N-{4-chloro-2-[1-(2,4-dichlorobenzyloxyimino)butyl]}trifluoromethanesulfonamide] | 1.8 | 58 | 88 | 0.4 |  |  | 
7 | CC/C(=N\OCCOc1ccccc1)c1cc(Cl)ccc1NS(=O)(=O)C(F)(F)F [Compound 106] | 11 |  | 48 | 1.0 |  |  | 
8 | CCC/C(=N\OCC1CCCCC1)c1cc(Cl)ccc1NS(=O)(=O)C(F)(F)F [Compound 111] | 5 |  |  |  |  | 9 | 70
9 | CC(C)/C(=N\OCc1ccc(C(F)(F)F)cc1C(F)(F)F)c1cc(Cl)ccc1NS(=O)(=O)C(F)(F)F [Compound 116, N-{2-[1-(2,4-bistrifluoromethylbenzyloxyimino)-2-methylpropyl]-4-chlorophenyl}trifluoromethanesulfonamide] | 0.9 | 10 |  |  |  |  | 
10 | C/C(=N\OCc1cc(C(F)(F)F)ccc1C(F)(F)F)c1cc(Cl)ccc1NS(=O)(=O)C(F)(F)F [Compound 120, N-{2-[1-(2,5-bistrifluoromethylbenzyloxyimino)ethyl]-4-chlorophenyl}trifluoromethanesulfonamide] | 0.5 | 2 |  |  |  |  | 
11 | C/C(=N\OCc1ccc(C(F)(F)F)cc1C(F)(F)F)c1cc(F)ccc1NS(=O)(=O)C(F)(F)F [Compound 121] | 0.6 | 3 |  |  |  |  | 
12 | C/C(=N\OC(C)c1ccc(Cl)cc1)c1cc(Cl)ccc1NS(=O)(=O)C(F)(F)F (centres unmarked) [Compound 123] | 0.9 | 11 |  | 1.2 | 0.3 μg/cm^2 |  | 
13 | C/C(=N\Oc1ccccc1)c1cc(Cl)ccc1NS(=O)(=O)C(F)(F)F [Compound 125] | 5.5 | 6 |  |  |  |  | 
14 | C/C(=N\Oc1ccc(Cl)cc1)c1cc(Cl)ccc1NS(=O)(=O)C(F)(F)F [Compound 127] | 0.4 |  | 90 | 0.3 |  |  | 
15 | CC/C(=N\Oc1cccc(C(F)(F)F)c1)c1cc(Cl)ccc1NS(=O)(=O)C(F)(F)F [Compound 133] | 0.9 |  | 71 |  |  |  | 
16 | C/C(=N\Oc1ccc(C#N)cc1)c1cc(Cl)ccc1NS(=O)(=O)C(F)(F)F [Compound 135] | 3 |  | 47 |  |  |  | 

Reference: patent US7312248B2, “Control of parasites in animals by the use of novel trifluoromethanesulfonanilide oxime ether derivatives” (Schering-Plough Animal Health Corporation, priority 2004, dated 2007)
